The test system of assay [1] is RhoA. Briefly: GTP-Rho pull-down assay in HEK 293T cell pellets. Conditions: 10 min, HEK 293T transfected with mouse Gpr56. It is filed as cell-based. The method, then:
HEK 293T cells were transiently transfected with mouse Gpr56 cDNA. Twenty-four hours after transfection, the cells were subject to serum starvation for 36 hr followed by the addition of recombinant TG2 250 nM with/without recombinant laminin-111 12.5 nM, or acetic acid as control for 10 min. The conditioned media were harvested, filtered, and concentrated as previously described. Equal volumes of the concentrated media were used for Western blot (Luo et al., PLOS One 9, e100043, 2014), while the cell pellets were used for GTP-Rho pull-down assay.
The corpus callosums (CCs) were dissected under a Leica stereo microscope (MZ 6; Leica™ Pte Ltd.), followed by washes in PBS and lysis in ice-cold RIPA buffer (1% Nonidet P-40, 50 mM Tris pH 7.6, 120 mM NaCl, 1 mM EDTA) containing protease inhibitor cocktail set 1 (Calbiochem). The lysates were cleared of insoluble materials by centrifugation at 16,000×g for 10 min at 4° C. Protein concentration was determined by a Bio-Rad protein assay method (Bio-Rad) according to the manufacturer's protocol, and equal amounts of protein were used for SDS-PAGE and western blot analysis. The GTP-Rho pull-down assay was performed as previously described (Luo et al., Proc Natl Acad Sci USA 108, 12925-12930, 2011). […] Bound Rho proteins were eluted by Laemmli sample buffer and detected by western blot using mouse monoclonal anti-RhoA antibody (Cytoskeleton).

The test system of assay [2] is oligodendrocyte precursors (OPCs). Briefly: OPC proliferation in culture with recombinant TGM2, BrdU/PDGFRα double immunostaining. The format is cell-based, mouse. The settings on record: 2 nM recombinant TGM2, 24 hrs. The method, then:
FIG. 14A depicts a TGM2 western blot on acutely isolated microglia, OPCs, astrocytes and oligodendrocytes. β-actin was used as loading control. FIG. 14B depicts representative images of BrdU (white) and PDGFRα (light gray) double immunostaining on OPC cultured for 24 hrs in proliferation media in the presence and absence of 2 nM recombinant TGM2. Scale bar, 100 μm. FIG. 14C depicts quantification of the percentage of BrdU^+ of total PDGFRα^+ OPCs. *P=0.0492, paired t-test, N=3 per genotype. Error bars are means±s.e.m.
To investigate whether TGM2 directly regulates OPC proliferation in a GPR56-dependent manner, OPCs derived from P5 Gpr56^+/− or Gpr56^−/− pups were cultured in the presence or absence of human recombinant TGM2 (FIGS. 15A and 15B) with the presence of BrdU. The cells were double immunostained for PDGFRα and BrdU (FIG. 14B).

Assay [3] concerns the target T1, GPR56^N (Mus musculus, UniProt Q8K209).
T1 construct: Using the soluble N-terminal fragment of GPR56 (GPR56^N); made in house
Briefly: In vitro biotinylation/proteomics pull-down from mixed glial cell lysate with mass spectrometry. Conditions: peptide sequences specific for binding to GPR56^N.
Source text: To identify the ligand of GPR56 in OPCs, an in vitro biotinylation/proteomics approach was employed using single-step capture on streptavidin beads to purify the binding partner(s) of GPR56 (FIGS. 2A-2B). Proteins with more than five identified tryptic peptides in the Mass Spectrometry (MS) output from three independent experiments are listed at Table 1.
(§1) GPR56^N and GPR56^Ndel fusions proteins with either mFc or hFc tag were generated as previously described (Luo et al. Proc Natl Acad Sci USA 108, 12925-12930, 2011). BirA enzyme was used to in vitro biotinylate GPR56^N-mFc-biotag protein as previously described (De Laurenzi and Melino Mol Cell Biol 21, 148-155, 2001). Mixed glial cell lysate was incubated with biotinylated GPR56^N protein in lysis buffer [20 mM Hepes (pH 7.3), 150 mM NaCl, and 5 mM MgCl2] with protein inhibitor mixture (Roche Molecular Biochemicals) and 1% Brij 96 (Fluka). Streptavidin beads (Sigma) were used to affinity purify immunocomplexes. GPR56-associated proteins were eluted in 2×SDS loading buffer, subjected to SDS/PAGE. The whole lane was used for MS at the Taplin Biological Mass Spectrometry at Havard Medical School. MS data were searched against the mouse International Protein Index (IPI mouse 339) database using the protein identification software Mascot (v2.2.04, Matrix Sciences) (Luo et al. Proc Natl Acad Sci USA 108, 12925-12930, 2011).
as §1, with “al.,” for “al.”, “(Stacey et al., J” for “(De Laurenzi and Melino Mol Cell”, “Chem 277, 29283-29293, 2002).” for “21, 148-155, 2001).”, “(20” for “[20”, “[pH 7.3],” for “(pH 7.3),”, “MgCl2)” for “MgCl2]”

T1 sequence (Q8K209 26-382 limits assumed): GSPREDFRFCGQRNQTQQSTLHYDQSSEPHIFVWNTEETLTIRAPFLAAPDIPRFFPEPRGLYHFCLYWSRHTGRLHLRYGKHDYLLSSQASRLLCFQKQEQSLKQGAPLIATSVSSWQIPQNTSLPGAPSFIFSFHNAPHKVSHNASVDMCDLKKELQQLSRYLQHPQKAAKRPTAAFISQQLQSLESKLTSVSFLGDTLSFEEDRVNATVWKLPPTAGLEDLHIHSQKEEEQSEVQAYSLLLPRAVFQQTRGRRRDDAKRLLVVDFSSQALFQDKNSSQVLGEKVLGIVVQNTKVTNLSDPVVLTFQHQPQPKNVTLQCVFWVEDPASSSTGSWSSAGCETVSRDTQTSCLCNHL

For Transglutaminase 2 [TG2], the “Relative level of GTP-RhoA to total RhoA” value is reported as “n.s” in assay [1] (TG2 250 nM alone vs control) and “activating RhoA downstream signaling” in assay [1] (TG2 250 nM with laminin-111 12.5 nM). The “OPC proliferation (percentage of BrdU+ of total PDGFRα+ OPCs)” value in assay [2] (proliferation media, OPCs printed as Gpr56−/− (first mention; cultures were Gpr56+/− or Gpr56−/−)) was “significantly increased”; in assay [2] (Gpr56−/− OPCs (second mention)), “attenuated”. In addition, the “Peptide Number (Exp1)” value in assay [3] (experiment 1) is given as 19. In addition, the “Peptide Number (Exp2)” value in assay [3] (experiment 2) is reported as 20. Besides, in assay [3] (experiment 3), the “Peptide Number (Exp3)” value amounted to 17.

Source of the values: patent publication US12358959B2, “Compositions and methods for oligodendrocyte development” (CHILDREN'S MEDICAL CENTER CORPORATION, priority 2016, dated 2025).
